Measured values as given in patent publication US20250188149A1, “ENHANCING ESTROGEN RECEPTOR ALPHA IN OSTEOARTHRITIS” (University of Pittsburgh - Of the Commonwealth System of …, priority 2022, published 2025).

Columns and labels:
[1] = patients with knee OA, intra-articular injection, phase II clinical trial, vs placebo; cited from earlier work
[2] = system: healthy human chondrocytes; assay: DOX-induced DNA damage and senescence in healthy human chondrocytes; details: 100 nM DOX, 3 days, vs vehicle

Row | Structure (SMILES) | reduction of joint pain and stiffness [1] | DNA damage (p21, γH2AX levels, comet assay) [2] | IL-6 and IL-8 expression (real-time qPCR) [2] | NF-κB pathway (NFκB gene, p-p65) [2] | SA-β-Gal staining (senescent phenotype) [2] | p16INK4A and p21 levels [2] | ERα level ([2]; western blot and IF)
1 | CC1(C)CCC(c2ccc(Cl)cc2)=C(CN2CCN(c3ccc(C(=O)NS(=O)(=O)c4ccc(N[C@H](CCN5CCOCC5)CSc5ccccc5)c(S(=O)(=O)C(F)(F)F)c4)cc3)CC2)C1 [ABT-263] | failed to outperform a placebo | – | – | – | – | – | –
2 | COc1cccc2c1C(=O)c1c(O)c3c(c(O)c1C2=O)C[C@@](O)(C(=O)CO)C[C@@H]3O[C@H]1C[C@H](N)[C@H](O)[C@H](C)O1 [DOX, doxorubicin] | – | significant DNA damage | upregulation | activated | increased | upregulation | significantly reduced
